Activity calls are given as the source filed them. The rule behind the calls is not given here.
Assay: Inhibition of beta-secretase assessed as proteolytic cleavage of amyloid precursor protein

Activity	SMILES
inactive	CN1C(=N)N(C)[C@@]2(Cc3c([nH]c4ccccc34)[C@]3(C(=O)N(C)C(=N)N3C)[C@@H]2c2c[nH]c3cc(Br)ccc23)C1=O
inactive	CN1C(=N)N(C)[C@@]2(Cc3c([nH]c4ccccc34)[C@]3(C(=O)N(C)C(=N)N3C)[C@@H]2c2c[nH]c3ccccc23)C1=O

Source: ChEMBL document CHEMBL1157511, “Dictazolines A and B, bisspiroimidazolidinones from the marine sponge Smenospongia cerebriformis” (J Nat Prod, 2008)
